PubChem BioAssay AID248 (DTP/NCI, 2004)
“And” between values parts separate entries of the source, which are not always exact repeats. Equal values may be shown once. Toxic doses and inconclusive results are not listed. Cut-off read from the data, not from the text of the source: active = T/C of 150% or more; inactive = T/C below 125%.

Test system: L1210 leukemia ip in BDF1 mice, survival T/C
Test: NCI In Vivo Anticancer Drug Screen. Data for tumor model L1210 Leukemia (intraperitoneal) in B6D2F1 (BDF1) mice
Settings: higher = longer survival
In short: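 Tumor was transplanted into mice, which were then dosed with test compound or vehicle alone. Survival was recorded for each group, and the treated figure was expressed relative to the control figure.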

[1] = endpoint: mean survival time, dose: 100.0 mg/kg/injection, schedule: Q01DX009 (ip), vehicle: saline
[2] = endpoint: mean survival time, dose: 100.0 mg/kg/injection, schedule: Q01DX001 (ip), vehicle: carboxymethylcellulose (CMC)
[3] = endpoint: mean survival time, dose: 200.0 mg/kg/injection, schedule: Q01DX001 (ip), vehicle: carboxymethylcellulose (CMC)
[4] = endpoint: mean survival time, dose: 400.0 mg/kg/injection, schedule: Q01DX001 (ip), vehicle: carboxymethylcellulose (CMC)
[5] = endpoint: mean survival time, dose: 100.0 mg/kg/injection, schedule: Q01DX009 (ip), vehicle: Klucel (hydroxypropylcellulose) (HPC)
[6] = endpoint: mean survival time, dose: 100.0 mg/kg/injection, schedule: Q04DX003 (ip), vehicle: Klucel (hydroxypropylcellulose) (HPC)
[7] = endpoint: mean survival time, dose: 200.0 mg/kg/injection, schedule: Q01DX009 (ip), vehicle: Klucel (hydroxypropylcellulose) (HPC)
[8] = endpoint: mean survival time, dose: 200.0 mg/kg/injection, schedule: Q04DX003 (ip), vehicle: Klucel (hydroxypropylcellulose) (HPC)
[9] = endpoint: mean survival time, dose: 400.0 mg/kg/injection, schedule: Q04DX003 (ip), vehicle: Klucel (hydroxypropylcellulose) (HPC)
[10] = endpoint: mean survival time, dose: 200.0 mg/kg/injection, schedule: Q01DX009 (ip), vehicle: saline
[11] = endpoint: mean survival time, dose: 400.0 mg/kg/injection, schedule: Q01DX009 (ip), vehicle: saline
[12] = endpoint: mean survival time, dose: 100.0 mg/kg/injection, schedule: Q04DX002 (ip), vehicle: Klucel (hydroxypropylcellulose) (HPC)
[13] = endpoint: mean survival time, dose: 200.0 mg/kg/injection, schedule: Q04DX002 (ip), vehicle: Klucel (hydroxypropylcellulose) (HPC)
[14] = endpoint: mean survival time, dose: 400.0 mg/kg/injection, schedule: Q04DX002 (ip), vehicle: Klucel (hydroxypropylcellulose) (HPC)
[15] = endpoint: mean survival time, dose: 100.0 mg/kg/injection, schedule: Q04DX003 (ip), vehicle: saline with Tween-80
[16] = endpoint: mean survival time, dose: 200.0 mg/kg/injection, schedule: Q04DX003 (ip), vehicle: saline with Tween-80
[17] = endpoint: mean survival time, dose: 400.0 mg/kg/injection, schedule: Q04DX003 (ip), vehicle: saline with Tween-80
[18] = endpoint: mean survival time, dose: 400.0 mg/kg/injection, schedule: Q01DX009 (ip), vehicle: Klucel (hydroxypropylcellulose) (HPC)
[19] = endpoint: mean survival time, dose: 100.0 mg/kg/injection, schedule: Q01DX009 (ip), vehicle: saline with Tween-80
[20] = endpoint: mean survival time, dose: 200.0 mg/kg/injection, schedule: Q01DX009 (ip), vehicle: saline with Tween-80

Measured: T/C

Cc1ccc(N=NN(C)CC#N)cc1
inactive: endpoint: mean survival time, dose: 25.0 mg/kg/injection, schedule: Q04DX003 (ip), vehicle: other 96 % of control | endpoint: mean survival time, dose: 50.0 mg/kg/injection, schedule: Q04DX003 (ip), vehicle: other 96 % of control | endpoint: mean survival time, dose: 100.0 mg/kg/injection, schedule: Q04DX003 (ip), vehicle: other 93 % of control and 105 % of control

O=Cc1nc2ccccc2cc1CCl
inactive: endpoint: mean survival time, dose: 75.0 mg/kg/injection, schedule: Q01DX001 (ip), vehicle: saline 92 % of control

Cc1ccc2nc(-c3ccc(F)cc3)cc(C(=O)O)c2c1
inactive: endpoint: mean survival time, dose: 100.0 mg/kg/injection, schedule: Q04DX003 (ip), vehicle: saline 92 % of control | endpoint: mean survival time, dose: 200.0 mg/kg/injection, schedule: Q04DX003 (ip), vehicle: saline 89 % of control | endpoint: mean survival time, dose: 400.0 mg/kg/injection, schedule: Q04DX003 (ip), vehicle: saline 95 % of control

COc1ccc2c(C)[n+]3ccc4cc(OC)c(OC)cc4c3cc2c1 (tested in a mixture with another compound)
inactive: endpoint: mean survival time, dose: 2.5 mg/kg/injection, schedule: Q01DX009 (ip), vehicle: saline 120 % of control | endpoint: mean survival time, dose: 5.0 mg/kg/injection, schedule: Q01DX009 (ip), vehicle: saline 121 % of control | endpoint: mean survival time, dose: 6.25 mg/kg/injection, schedule: Q01DX009 (ip), vehicle: saline 117 % of control | endpoint: mean survival time, dose: 12.5 mg/kg/injection, schedule: Q01DX009 (ip), vehicle: saline 121 % of control | endpoint: mean survival time, dose: 15.0 mg/kg/injection, schedule: Q01DX009 (ip), vehicle: saline 110 % of control | endpoint: mean survival time, dose: 20.0 mg/kg/injection, schedule: Q01DX009 (ip), vehicle: saline 123 % of control | endpoint: mean survival time, dose: 25.0 mg/kg/injection, schedule: Q01DX009 (ip), vehicle: saline 123 % of control | endpoint: mean survival time, dose: 40.0 mg/kg/injection, schedule: Q01DX009 (ip), vehicle: saline 124 % of control | endpoint: mean survival time, dose: 50.0 mg/kg/injection, schedule: Q01DX009 (ip), vehicle: saline 115 % of control | endpoint: mean survival time, dose: 80.0 mg/kg/injection, schedule: Q01DX009 (ip), vehicle: saline 105 % of control | [1] 115 % of control | endpoint: mean survival time, dose: 108.0 mg/kg/injection, schedule: Q01DX009 (ip), vehicle: saline 100 % of control

Clc1cccc(N=C/C=C/c2ccccc2)c1
inactive: [2] 105 % of control | endpoint: mean survival time, dose: 100.0 mg/kg/injection, schedule: Q01DX009 (ip), vehicle: carboxymethylcellulose (CMC) 96 % of control and 100 % of control | endpoint: mean survival time, dose: 100.0 mg/kg/injection, schedule: Q04DX002 (ip), vehicle: carboxymethylcellulose (CMC) 94 % of control and 100 % of control | endpoint: mean survival time, dose: 100.0 mg/kg/injection, schedule: Q04DX003 (ip), vehicle: carboxymethylcellulose (CMC) 92 % of control | [3] 96 % of control | endpoint: mean survival time, dose: 200.0 mg/kg/injection, schedule: Q01DX009 (ip), vehicle: carboxymethylcellulose (CMC) 107 % of control and 92 % of control | endpoint: mean survival time, dose: 200.0 mg/kg/injection, schedule: Q04DX002 (ip), vehicle: carboxymethylcellulose (CMC) 95 % of control and 97 % of control | endpoint: mean survival time, dose: 200.0 mg/kg/injection, schedule: Q04DX003 (ip), vehicle: carboxymethylcellulose (CMC) 96 % of control | [4] 102 % of control | endpoint: mean survival time, dose: 400.0 mg/kg/injection, schedule: Q01DX009 (ip), vehicle: carboxymethylcellulose (CMC) 103 % of control | endpoint: mean survival time, dose: 400.0 mg/kg/injection, schedule: Q04DX002 (ip), vehicle: carboxymethylcellulose (CMC) 94 % of control and 98 % of control | endpoint: mean survival time, dose: 400.0 mg/kg/injection, schedule: Q04DX003 (ip), vehicle: carboxymethylcellulose (CMC) 107 % of control

Cc1ccc(C)c(NC(=O)Nc2c(C)n(C)n(-c3ccccc3)c2=O)c1
inactive: [5] 96 % of control | [6] 97 % of control | [7] 95 % of control | [8] 89 % of control | [9] 93 % of control

Cl
inactive: endpoint: mean survival time, dose: 50.0 mg/kg/injection, schedule: Q01DX009 (oral), vehicle: water 97 % of control | endpoint: median survival time, dose: 15.0 mg/kg/injection, schedule: Q01DX009 (ip), vehicle: water 87 % of control | endpoint: median survival time, dose: 30.0 mg/kg/injection, schedule: Q01DX009 (ip), vehicle: water 100 % of control | endpoint: median survival time, dose: 60.0 mg/kg/injection, schedule: Q01DX009 (ip), vehicle: water 112 % of control | endpoint: median survival time, dose: 90.0 mg/kg/injection, schedule: Q01DX009 (ip), vehicle: water 112 % of control

Cc1ccc(N(CCO)CCO)cc1NC(=O)c1ccccc1
inactive: [2] 103 % of control | [3] 101 % of control | [4] 101 % of control

O=S(OCc1ccccc1)OCc1ccccc1
inactive: [1] 98 % of control | [10] 104 % of control | [11] 91 % of control

CC(=O)Oc1ccc2ccnc(/C=N\NC(N)=S)c2c1
inactive: [12] 106 % of control | [13] 98 % of control | [14] 117 % of control

CC(=O)Nc1cccc(/C=C/C=C/c2ccc([N+](=O)[O-])cc2)c1
inactive: [15] 93 % of control | [16] 90 % of control | [17] 90 % of control

COc1cc2nc3cc(Nc4ccccc4)c(=O)c(C(C)=O)c-3n(CCN3CCOCC3)c2cc1OC
inactive: [12] 90 % of control | [13] 87 % of control | [14] 107 % of control

O=C(NC1CCCCC1)OCCOc1ccccc1
inactive: [5] 95 % of control | [7] 103 % of control | [18] 97 % of control

O=c1[nH]cnc2c1nc1n2CCC1
inactive: endpoint: mean survival time, dose: 50.0 mg/kg/injection, schedule: Q01DX009 (ip), vehicle: saline with Tween-80 93 % of control | [19] 90 % of control | [15] 105 % of control | [20] 88 % of control | [16] 102 % of control

CCOC(=O)c1nc(SCc2ccccc2)n(Cc2ccccc2)c1C(=O)OCC
inactive: endpoint: mean survival time, dose: 100.0 mg/kg/injection, schedule: Q01DX001 (ip), vehicle: saline with Tween-80 109 % of control | [19] 104 % of control and 107 % of control | endpoint: mean survival time, dose: 100.0 mg/kg/injection, schedule: Q04DX002 (ip), vehicle: saline with Tween-80 102 % of control and 108 % of control | [15] 91 % of control | endpoint: mean survival time, dose: 200.0 mg/kg/injection, schedule: Q01DX001 (ip), vehicle: saline with Tween-80 101 % of control | [20] 102 % of control and 111 % of control | endpoint: mean survival time, dose: 200.0 mg/kg/injection, schedule: Q04DX002 (ip), vehicle: saline with Tween-80 101 % of control and 87 % of control | [16] 107 % of control | endpoint: mean survival time, dose: 400.0 mg/kg/injection, schedule: Q01DX001 (ip), vehicle: saline with Tween-80 95 % of control | endpoint: mean survival time, dose: 400.0 mg/kg/injection, schedule: Q01DX009 (ip), vehicle: saline with Tween-80 101 % of control and 102 % of control | endpoint: mean survival time, dose: 400.0 mg/kg/injection, schedule: Q04DX002 (ip), vehicle: saline with Tween-80 97 % of control and 104 % of control | [17] 101 % of control

Cc1cc([N+](=O)[O-])c(N/N=C/c2c[nH]c3ccccc23)c([N+](=O)[O-])c1
inactive: [1] 102 % of control | [10] 93 % of control | [11] 98 % of control

COc1cccc(/C=C/c2nccc3ccccc23)c1OC
inactive: [5] 90 % of control | [6] 106 % of control | [7] 91 % of control | [8] 98 % of control | [18] 91 % of control | [9] 90 % of control
